Assay results taken from US11034650B2, “Compounds useful for treating a Mannheimia haemolytica or Histophilus somni infection” (Intervet Inc., priority 2016, dated 2021).
Converted amounts (≈) assume the structure as drawn.

Key:
Format in all cases: cell-based
[1] = tested on: Mannheimia haemolytica MH 10720 (154, BRD field isolate); assay: MIC, broth-microdilution (CLSI VET01-A4), strain MH 10720; conditions: Mannheimia haemolytica strain MH 10720, broth-microdilution; unit assumed
Method: (§1) For example, representative compounds were tested against ***, Mannheimia haemolytica and Pasteurella multocida, using the conventional broth-dilution assay.
(§2) The Minimum inhibitory concentrations (MIC) of compounds according to the invention for a number of veterinary bacterial pathogens were determined by the broth-microdilution method according to CLSI document VET01-A4.
(§3) Microdilution trays containing a doubling dilution series of the test compound were used for the tests. The MIC results were interpreted according to the CLSI documents VET01-S3. The lowest concentration of compound at which no visible growth (i.e. no turbidity) detected by the unaided eye was recorded as the MIC.

[2] = tested on: Mannheimia haemolytica MH 13065 (XB0446-6003.9, BRD field isolate); assay: MIC, broth-microdilution (CLSI VET01-A4), strain MH 13065; conditions: Mannheimia haemolytica strain MH 13065, broth-microdilution; unit assumed
Method: as §1, §2, §3

[3] = tested on: Pasteurella multocida PM 10775 (080130003051, BRD field isolate); assay: MIC, broth-microdilution (CLSI VET01-A4), strain PM 10775; conditions: Pasteurella multocida strain PM 10775, broth-microdilution; unit assumed
Method: as §1, §2, §3

[4] = tested on: Mannheimia haemolytica MH 12587 (1071, BRD field isolate, macrolide-resistance: erm+, E+); assay: MIC, broth-microdilution (CLSI VET01-A4), strain MH 12587; conditions: Mannheimia haemolytica strain MH 12587, broth-microdilution; unit assumed
Method: as §1, §2, §3

[5] = tested on: Mannheimia haemolytica MH 6357 (M7/2, reference strain, cattle infection strain); assay: MIC, broth-microdilution (CLSI VET01-A4), strain MH 6357; conditions: Mannheimia haemolytica strain MH 6357, broth-microdilution; unit assumed
Method: as §1, §2, §3

[6] = tested on: Mannheimia haemolytica MH 6374 (ATCC 33396, reference strain); assay: MIC, broth-microdilution (CLSI VET01-A4), strain MH 6374; conditions: Mannheimia haemolytica strain MH 6374, broth-microdilution; unit assumed
Method: as §1, §2, §3

[7] = tested on: Mannheimia haemolytica MH 13093 (XB0472-6014.1, BRD field isolate); assay: MIC, broth-microdilution (CLSI VET01-A4), strain MH 13093; conditions: Mannheimia haemolytica strain MH 13093, broth-microdilution; unit assumed
Method: as §1, §2, §3

[8] = tested on: Pasteurella multocida PM 6267 (P 2225 (L386), reference strain, mouse infection strain); assay: MIC, broth-microdilution (CLSI VET01-A4), strain PM 6267; conditions: Pasteurella multocida strain PM 6267, broth-microdilution; unit assumed
Method: as §1, §2, §3

[9] = tested on: Pasteurella multocida PM 12080 (IV102277-0093, BRD field isolate); assay: MIC, broth-microdilution (CLSI VET01-A4), strain PM 12080; conditions: Pasteurella multocida strain PM 12080, broth-microdilution; unit assumed
Method: as §1, §2, §3

Compound	MIC MH 10720 [1]	MIC MH 13065 [2]	MIC PM 10775 [3]	MIC MH 12587 [4]	MIC MH 6357 [5]	MIC MH 6374 [6]	MIC MH 13093 [7]	MIC PM 6267 [8]	MIC PM 12080 [9]
COCCN(C)Cc1ccc(C#Cc2ccc(C(=O)N[C@H](C(=O)NO)C(C)C)cc2)cc1 [Compound 203]	0.2 µg/mL (≈ 0.457 µM)	0.8 µg/mL (≈ 1.83 µM)	≤ 0.1 µg/mL	3.1 µg/mL (≈ 7.09 µM)	1.6 µg/mL (≈ 3.66 µM)	1.6 µg/mL (≈ 3.66 µM)	1.6 µg/mL (≈ 3.66 µM)	≤ 0.1 µg/mL	≤ 0.1 µg/mL
CN(C)c1ccc(CNCc2ccc(C#Cc3ccc(C(=O)N[C@@H](CO)C(=O)NO)cc3)cc2)cc1 [Compound 134]	6.3 µg/mL (≈ 12.9 µM)	12.5 µg/mL (≈ 25.7 µM)	≤ 0.1 µg/mL	12.5 µg/mL (≈ 25.7 µM)	25 µg/mL (≈ 51.4 µM)	6.3 µg/mL (≈ 12.9 µM)	25 µg/mL (≈ 51.4 µM)	0.8 µg/mL (≈ 1.64 µM)	3.1 µg/mL (≈ 6.37 µM)
CC[C@H](C)[C@H](NC(=O)c1ccc(C#Cc2ccc(CNCc3ccc(C)cc3)cc2)cc1)C(=O)NO [Compound 189]		1.6 µg/mL (≈ 3.31 µM)	≤ 0.1 µg/mL	3.1 µg/mL (≈ 6.41 µM)	1.6 µg/mL (≈ 3.31 µM)	3.1 µg/mL (≈ 6.41 µM)	3.1 µg/mL (≈ 6.41 µM)	0.2 µg/mL (≈ 0.414 µM)	0.4 µg/mL (≈ 0.827 µM)
O=C(N[C@@H](CO)C(=O)NO)c1ccc(C#Cc2ccc(CNCc3ccncc3)cc2)cc1 [Compound 90]	1.6 µg/mL (≈ 3.6 µM)	1.6 µg/mL (≈ 3.6 µM)	≤ 0.1 µg/mL	3.1 µg/mL (≈ 6.97 µM)	3.1 µg/mL (≈ 6.97 µM)	1.6 µg/mL (≈ 3.6 µM)	1.6 µg/mL (≈ 3.6 µM)	≤ 0.1 µg/mL	0.8 µg/mL (≈ 1.8 µM)
CC[C@H](C)[C@H](NC(=O)c1ccc(C#Cc2ccc(CNCc3ccc(OC)cc3)cc2)cc1)C(=O)NO [Compound 129]	0.4 µg/mL (≈ 0.801 µM)	1.6 µg/mL (≈ 3.2 µM)	≤ 0.1 µg/mL	3.1 µg/mL (≈ 6.2 µM)	1.6 µg/mL (≈ 3.2 µM)	1.6 µg/mL (≈ 3.2 µM)	3.1 µg/mL (≈ 6.2 µM)	0.8 µg/mL (≈ 1.6 µM)	1.6 µg/mL (≈ 3.2 µM)
COCCNCc1ccc(C#Cc2ccc(C(=O)N[C@@H](CO)C(=O)NO)cc2)cc1 [Compound 74]	3.1 µg/mL (≈ 7.53 µM)	6.3 µg/mL (≈ 15.3 µM)	≤ 0.1 µg/mL	12.5 µg/mL (≈ 30.4 µM)	3.1 µg/mL (≈ 7.53 µM)	3.1 µg/mL (≈ 7.53 µM)	12.5 µg/mL (≈ 30.4 µM)	0.8 µg/mL (≈ 1.94 µM)	3.1 µg/mL (≈ 7.53 µM)
O=C(N[C@@H](CO)C(=O)NO)c1ccc(C#Cc2ccc(CN3CCOCC3)cc2)cc1 [Compound 77]	0.8 µg/mL (≈ 1.89 µM)	3.1 µg/mL (≈ 7.32 µM)	≤ 0.1 µg/mL	3.1 µg/mL (≈ 7.32 µM)	6.3 µg/mL (≈ 14.9 µM)	1.6 µg/mL (≈ 3.78 µM)	3.1 µg/mL (≈ 7.32 µM)	≤ 0.1 µg/mL	0.8 µg/mL (≈ 1.89 µM)
CC[C@H](C)[C@H](NC(=O)c1ccc(C#Cc2ccc(CNCc3ccccc3)cc2)cc1)C(=O)NO [Compound 126]	0.4 µg/mL (≈ 0.852 µM)	1.6 µg/mL (≈ 3.41 µM)	≤ 0.1 µg/mL	1.6 µg/mL (≈ 3.41 µM)	3.1 µg/mL (≈ 6.6 µM)	1.6 µg/mL (≈ 3.41 µM)	1.6 µg/mL (≈ 3.41 µM)	0.4 µg/mL (≈ 0.852 µM)	0.8 µg/mL (≈ 1.7 µM)
COc1ccc(CNCc2ccc(C#Cc3ccc(C(=O)N[C@@H](CO)C(=O)NO)cc3)cc2)cc1 [Compound 88]	1.6 µg/mL (≈ 3.38 µM)	3.1 µg/mL (≈ 6.55 µM)	≤ 0.1 µg/mL	6.3 µg/mL (≈ 13.3 µM)	6.3 µg/mL (≈ 13.3 µM)	1.6 µg/mL (≈ 3.38 µM)	12.5 µg/mL (≈ 26.4 µM)	0.2 µg/mL (≈ 0.422 µM)	1.6 µg/mL (≈ 3.38 µM)
CC(C)[C@H](NC(=O)c1ccc(C#Cc2cccc(CNCC(C)(C)C)c2)cc1)C(=O)NO [Compound 27]	3.1 µg/mL (≈ 7.12 µM)	25 µg/mL (≈ 57.4 µM)	0.8 µg/mL (≈ 1.84 µM)	25 µg/mL (≈ 57.4 µM)	12.5 µg/mL (≈ 28.7 µM)	12.5 µg/mL (≈ 28.7 µM)	25 µg/mL (≈ 57.4 µM)	3.1 µg/mL (≈ 7.12 µM)	6.3 µg/mL (≈ 14.5 µM)
CC[C@H](C)[C@H](NC(=O)c1ccc(C#Cc2ccc(CNCc3nccs3)cc2)cc1)C(=O)NO [Compound 188]	≤ 0.1 µg/mL	0.8 µg/mL (≈ 1.68 µM)	≤ 0.1 µg/mL	3.1 µg/mL (≈ 6.5 µM)	0.8 µg/mL (≈ 1.68 µM)	1.6 µg/mL (≈ 3.36 µM)	0.8 µg/mL (≈ 1.68 µM)	≤ 0.1 µg/mL	≤ 0.1 µg/mL
O=C(N[C@@H](CO)C(=O)NO)c1ccc(C#Cc2ccc(CNCc3ccccc3)cc2)cc1 [Compound 85]	1.6 µg/mL (≈ 3.61 µM)	1.6 µg/mL (≈ 3.61 µM)	≤ 0.1 µg/mL	3.1 µg/mL (≈ 6.99 µM)	3.1 µg/mL (≈ 6.99 µM)	0.8 µg/mL (≈ 1.8 µM)	3.1 µg/mL (≈ 6.99 µM)	≤ 0.1 µg/mL	0.8 µg/mL (≈ 1.8 µM)
